Reference: paper PMC10035370, “Targeting Tumor Angiogenesis with the Selective VEGFR-3 Inhibitor EVT801 in Combination with Cancer Immunotherapy” (Cancer Research Communications, 2022)
Read-outs that look alike come from different tables or passages of the source.

Test: Pharmacokinetics in mice
Format: in vivo
Conditions: mouse; for half-life / Cmax / AUC(0-t): plasma; for AUC(0-t): read-out: AUC(0–24)
Description: Plasma samples and tumor homogenates were mixed with the precipitant solution (acetonitrile containing internal standard). The supernatant (180 µL) was transferred in a 96-well plate and 5 µL were injected. EVT801 and its main metabolite were quantified by LC-MS/MS following standard conditions.
Quality control (QC) samples and calibration samples were prepared daily by spiking mouse plasma and tumor homogenates with working solutions prepared from independent weighing. The calibration curve was calculated from calibration levels at 1, 2.5, 5, 10, 25, 50, 100, 200, 500, 1000 and 2000 ng/mL. A variation of ± 20 % versus the nominal concentrations was used as criteria for qualification of samples; at least 75 % of all standards needed to be within this window, and at least 6 concentration values within tis window were used for quantification. The concentrations for QC samples were 5, 50, 150, 450 and 1500 ng/mL. At least 66 % of all QC samples, and at least 50 % of QC samples at a given concentration were within the ± 20 % window. Quadratic regressions were applied, not forced through the origin, and weighted by 1/x (with R^2 > 0.98). The lower limit of quantification for both compounds was set to 1 ng/mL for plasma and to 3 ng/g for tumor samples.

Question: Which half-life (Balb/c, 30 mg/kg, Balb/c mice, 30 mg/kg, read-out: T1/2 in plasma (converted)) does the source give for `CCn1c(N)c(-c2ncc[nH]2)c(=O)c2ccc(C#C[C@@](C)(O)COC)nc21` [EVT801] here?
Answer: 162 min

Question: And the half-life (Balb/c, 100 mg/kg, Balb/c mice, 100 mg/kg, read-out: T1/2 in plasma (converted))?
Answer: 66 min

Question: What about the half-life (Balb/c, 100 mg/kg, Balb/c with 4T1 tumor, 100 mg/kg for 2 weeks) of the same compound?
Answer: 192 min

Question: And the half-life (SCID, 10 mg/kg, SCID mice with tumor, 10 mg/kg for 2 weeks, read-out: T1/2 in plasma (converted))?
Answer: 54 min

Question: What about the half-life (SCID, 30 mg/kg, SCID mice with tumor, 30 mg/kg for 2 weeks, read-out: T1/2 in plasma (converted)) of the same compound?
Answer: 96 min

Question: What about the Cmax (oral, 100 mg/kg/day) of the same compound?
Answer: 8940 ng/mL

Question: What about the AUC(0-t) (oral, 100 mg/kg/day) of the same compound?
Answer: 22000 ng·h/mL

Question: What about the Cmax (po, 30 mg/kg twice per day) of the same compound?
Answer: 8390 ng/mL

Question: What about the AUC(0-t) (po, 30 mg/kg twice per day) of the same compound?
Answer: 28000 ng·h/mL

Question: What about the Kp (Balb/c with 4T1 tumor, 100 mg/kg for 2 weeks, read-out: Tissue to plasma (AUC)) of the same compound?
Answer: 0.88
